Measured values: paper PMC7179259, “Safety, Tolerability, Pharmacokinetics, and Antimalarial Activity of the Novel Plasmodium Phosphatidylinositol 4-Kinase Inhibitor MMV390048 in Healthy Volunteers” (Antimicrobial Agents and Chemotherapy, 2020)
Marks after values point to notes of the source that are not given here.

How the values were obtained:
healthy volunteers = test: First-in-human single-ascending-dose study: safety and tolerability; type: in vivo; details: for lowest observed neutrophil count: 24 h after 40 mg
Method: The first-in-human study was conducted at the University of Cape Town Clinical Research Centre (Cape Town, South Africa) between 30 April 2014 and 2 February 2015. This was a phase 1, adaptive, single-center, double-blind, randomized, placebo-controlled, ascending-dose study. The study was planned in two parts, with a single ascending dose and then a multiple ascending dose. However, the multiple-ascending-dose part was not executed due to the high variability in pharmacokinetic profiles observed during the single-ascending-dose part (see Results).
(i) First-in-human study. The study was conducted in five fasted cohorts (5, 20, 40, 80, and 120 mg) and one fed 40-mg cohort. The initial dose of 5 mg was chosen in agreement with guidelines on dose selection for first-in-human clinical studies ([15], [16]) and was based on the no-observed-adverse-event level for the most sensitive species observed in preclinical toxicology studies. Doses administered to subsequent cohorts were determined a priori after consideration of interim human pharmacokinetic and safety data.
MMV390048 and placebo were each supplied as a powder for suspension packaged in white opaque high-density polyethylene bottles, with a volume capacity of 100 ml when reconstituted with deionized water (Almac Pharma Services, United Kingdom). The powder contained the following excipients: Avicel CL611, disodium edetate, sodium citrate dihydrate, methyl paraben, sucralose, povidone, and orange flavor. The reconstituted formulation consisted of the active ingredient MMV390048 in an aqueous suspension of 5 mg ml^−1.
All subjects in the fasted cohorts were dosed on day 1 after a fasting period of ≥8 h. Water was prohibited from 2 h predose and then allowed ad libitum from 2 h postdose, and standardized meals were provided from 4 h postdose. In the first two cohorts (5 and 20 mg), a sentinel subcohort (n = 2) was dosed on day 1. The safety review team reviewed safety and pharmacokinetic data of these subjects up to day 3 before dosing the rest of these two cohorts and up to day 19 for all cohorts before dose escalation. […] Selected subjects from the fasted cohorts then received 40 mg in a fed state to evaluate the effect of food on the tolerability and pharmacokinetic profile of MMV390048. […] The predose breakfast was in line with FDA guidelines ([13]) and was composed of approximately 800 to 1,000 calories (cal), with 150, 250, and 500 to 600 cal from protein, carbohydrate, and fat, respectively.
Safety endpoints were the incidence, severity, and relationship to the investigational product (and inoculum for the IBSM study) of observed and self-reported adverse events (AEs), and changes from baseline in physical examination, vital signs, standard electrocardiograms (ECGs), continuous ECGs (first-in-human study only), and laboratory evaluation (hematology, coagulation parameters, hemolysis panel, clinical chemistry, and urinalysis) findings. […] AE severity was evaluated according to the Common Terminology Criteria for Adverse Events version 4.03 ([18]) and the World Health Organization recommendations for grading acute and subacute toxic effects ([19]).

rats = tested on: rats; parameters: method as in not given; details: preclinical toxicology studies in rats; ref not given; cited from earlier work
[1] = first-in-human study, 5 mg (n = 6)
[2] = first-in-human study, 20 mg (n = 6)
[3] = first-in-human study, 40 mg (n = 6)
[4] = first-in-human study, 40 mg (n = 6), AE was neutropenia
[5] = first-in-human study, 40 mg FED (n = 6)
[6] = first-in-human study, 40 mg FED (n = 6), AE was neutropenia
[7] = first-in-human study, 80 mg (n = 6)
[8] = first-in-human study, 120 mg (n = 6)
[9] = first-in-human study, 120 mg (n = 6), SAE was generalized myoclonus

CS(=O)(=O)c1ccc(-c2cnc(N)c(-c3ccc(C(F)(F)F)nc3)c2)cc1 [MMV390048]
serious AE (SAE) reported (healthy volunteers; approximately 24 h after 120 mg, subject with undisclosed history of epilepsy): generalized myoclonus | No. (%) of subjects with adverse events: All AEs (healthy volunteers; [1]): 4 (67) | No. (%) of subjects with adverse events: All AEs, Treatment related (healthy volunteers; [1]): 0 | No. (%) of subjects with adverse events: Grade 2 AEs (healthy volunteers; [1]): 0 | No. (%) of subjects with adverse events: Grade 2 AEs, Treatment related (healthy volunteers; [1]): 0 | No. (%) of subjects with adverse events: Grade 3 AEs (healthy volunteers; [1]): 0 | No. (%) of subjects with adverse events: SAEs (healthy volunteers; [1]): 0 | No. of adverse events: All AEs (healthy volunteers; [1]): 11 | No. of adverse events: All AEs, Treatment related (healthy volunteers; [1]): 0 | No. of adverse events: Grade 2 AEs (healthy volunteers; [1]): 0 | No. of adverse events: Grade 2 AEs, Treatment related (healthy volunteers; [1]): 0 | No. of adverse events: Grade 3 AEs (healthy volunteers; [1]): 0 | No. of adverse events: SAEs (healthy volunteers; [1]): 0 | No. (%) of subjects with adverse events: All AEs (healthy volunteers; [2]): 5 (83) | No. (%) of subjects with adverse events: All AEs, Treatment related (healthy volunteers; [2]): 3 (50) | No. (%) of subjects with adverse events: Grade 2 AEs (healthy volunteers; [2]): 4 (67) | No. (%) of subjects with adverse events: Grade 2 AEs, Treatment related (healthy volunteers; [2]): 1 (17) | No. (%) of subjects with adverse events: Grade 3 AEs (healthy volunteers; [2]): 0 | No. (%) of subjects with adverse events: SAEs (healthy volunteers; [2]): 0 | No. of adverse events: All AEs (healthy volunteers; [2]): 12 | No. of adverse events: All AEs, Treatment related (healthy volunteers; [2]): 3 | No. of adverse events: Grade 2 AEs (healthy volunteers; [2]): 5 | No. of adverse events: Grade 2 AEs, Treatment related (healthy volunteers; [2]): 1 | No. of adverse events: Grade 3 AEs (healthy volunteers; [2]): 0 | No. of adverse events: SAEs (healthy volunteers; [2]): 0 | No. (%) of subjects with adverse events: All AEs (healthy volunteers; [3]): 5 (83) | No. (%) of subjects with adverse events: All AEs, Treatment related (healthy volunteers; [3]): 3 (50) | No. (%) of subjects with adverse events: Grade 2 AEs (healthy volunteers; [3]): 3 (50) | No. (%) of subjects with adverse events: Grade 2 AEs, Treatment related (healthy volunteers; [3]): 1 (17) | No. (%) of subjects with adverse events: SAEs (healthy volunteers; [3]): 0 | No. of adverse events: All AEs (healthy volunteers; [3]): 19 | No. of adverse events: All AEs, Treatment related (healthy volunteers; [3]): 3 | No. of adverse events: Grade 2 AEs (healthy volunteers; [3]): 4 | No. of adverse events: Grade 2 AEs, Treatment related (healthy volunteers; [3]): 1 | No. of adverse events: SAEs (healthy volunteers; [3]): 0 | No. (%) of subjects with adverse events: Grade 3 AEs (healthy volunteers; [4]): 1 (17)^c | No. of adverse events: Grade 3 AEs (healthy volunteers; [4]): 1^c | No. (%) of subjects with adverse events: All AEs (healthy volunteers; [5]): 6 (100) | No. (%) of subjects with adverse events: All AEs, Treatment related (healthy volunteers; [5]): 2 (33) | No. (%) of subjects with adverse events: Grade 2 AEs (healthy volunteers; [5]): 2 (33) | No. (%) of subjects with adverse events: Grade 2 AEs, Treatment related (healthy volunteers; [5]): 1 (17) | No. (%) of subjects with adverse events: SAEs (healthy volunteers; [5]): 0 | No. of adverse events: All AEs (healthy volunteers; [5]): 22 | No. of adverse events: All AEs, Treatment related (healthy volunteers; [5]): 2 | No. of adverse events: Grade 2 AEs (healthy volunteers; [5]): 2 | No. of adverse events: Grade 2 AEs, Treatment related (healthy volunteers; [5]): 1 | No. of adverse events: SAEs (healthy volunteers; [5]): 0 | No. (%) of subjects with adverse events: Grade 3 AEs (healthy volunteers; [6]): 1 (17)^c | No. of adverse events: Grade 3 AEs (healthy volunteers; [6]): 1^c | No. (%) of subjects with adverse events: All AEs (healthy volunteers; [7]): 6 (100) | No. (%) of subjects with adverse events: All AEs, Treatment related (healthy volunteers; [7]): 2 (33) | No. (%) of subjects with adverse events: Grade 2 AEs (healthy volunteers; [7]): 5 (83) | No. (%) of subjects with adverse events: Grade 2 AEs, Treatment related (healthy volunteers; [7]): 0 | No. (%) of subjects with adverse events: Grade 3 AEs (healthy volunteers; [7]): 0 | No. (%) of subjects with adverse events: SAEs (healthy volunteers; [7]): 0 | No. of adverse events: All AEs (healthy volunteers; [7]): 20 | No. of adverse events: All AEs, Treatment related (healthy volunteers; [7]): 3 | No. of adverse events: Grade 2 AEs (healthy volunteers; [7]): 6 | No. of adverse events: Grade 2 AEs, Treatment related (healthy volunteers; [7]): 0 | No. of adverse events: Grade 3 AEs (healthy volunteers; [7]): 0 | No. of adverse events: SAEs (healthy volunteers; [7]): 0 | No. (%) of subjects with adverse events: All AEs (healthy volunteers; [8]): 6 (100) | No. (%) of subjects with adverse events: All AEs, Treatment related (healthy volunteers; [8]): 1 (17) | No. (%) of subjects with adverse events: Grade 2 AEs (healthy volunteers; [8]): 2 (33) | No. (%) of subjects with adverse events: Grade 2 AEs, Treatment related (healthy volunteers; [8]): 1 (17) | No. (%) of subjects with adverse events: Grade 3 AEs (healthy volunteers; [8]): 0 | No. of adverse events: All AEs (healthy volunteers; [8]): 11 | No. of adverse events: All AEs, Treatment related (healthy volunteers; [8]): 1 | No. of adverse events: Grade 2 AEs (healthy volunteers; [8]): 3 | No. of adverse events: Grade 2 AEs, Treatment related (healthy volunteers; [8]): 1 | No. of adverse events: Grade 3 AEs (healthy volunteers; [8]): 0 | No. (%) of subjects with adverse events: SAEs (healthy volunteers; [9]): 1 (17)^e | No. of adverse events: SAEs (healthy volunteers; [9]): 1^e | trends in inhibin B, FSH, LH, or testosterone levels (healthy volunteers; first-in-human study, across dose groups): No trends | adverse events considered potentially related to MMV390048 (healthy volunteers; first-in-human study, all MMV390048 cohorts): Twelve | QT prolongation (QTcF, >450 ms) (healthy volunteers; first-in-human study, any subject): No QT prolongation | decrease in blood pressure (to) (healthy volunteers; first-in-human study, mild related AE, one subject): 87/52 | diarrhea considered related to MMV390048, cases (healthy volunteers; first-in-human study, moderate severity, in 2 subjects): 2 | duration of moderate papular urticaria episode (healthy volunteers; one subject, 20 mg): 20 days | onset of moderate papular urticaria after dosing (healthy volunteers; one subject, 20 mg): 14 days | time for neutrophil count to return to >1.5 × 10^9 liter^−1 (healthy volunteers; one subject, 40 mg fasted): 4 days | time for neutrophil count to return to >1.5 × 10^9 liter^−1 (healthy volunteers; one subject, 40 mg fed): 13 days | PR prolongation on ECG, maximum (healthy volunteers; one subject, 24 h after 20 mg, PR 200.3 ms on admission): 285 ms | lowest observed neutrophil count (healthy volunteers; one subject, fasted state (predose 1.65)): 7.7e+08 L⁻¹ | lowest observed neutrophil count (healthy volunteers; one subject, fed state (predose 1.90)): 9.7e+08 L⁻¹ | tolerability (healthy volunteers; single oral dose up to 120 mg, healthy volunteers): generally well tolerated | testicular toxicity (rats): testicular toxicity was observed
